Here are results for 33 molecules from the Deep4Chem optical property database.

The data set in a line: solvent given as SMILES.

Turning to `C(=C\c1ccc(N(c2ccc(/C=C/c3ccc(N(c4ccccc4)c4ccccc4)cc3)cc2)c2ccc(-c3nc4ccccc4nc3-c3ccc(N(c4ccc(/C=C/c5ccc(N(c6ccccc6)c6ccccc6)cc5)cc4)c4ccc(/C=C/c5ccc(N(c6ccccc6)c6ccccc6)cc5)cc4)cc3)cc2)cc1)/c1ccc(N(c2ccccc2)c2ccccc2)cc1`, the fluorescence lifetime (in C1CCOC1) amounted to 1.5 ns.

Under “in ClCCl”, `COC(=O)c1cc(=O)n(C)c2cc(-c3cccc(N(C)C)c3)sc12` came in with a fluorescence lifetime of 2.64 ns.

Turning to `CC1=N/C(=C\c2cccc(N(C)C)c2)C(=O)N1C`, the fluorescence lifetime runs as follows: (in C1CCOC1) 15.3 ns; (in CC#N) 8.6 ns; (in CCCCCC) 22.5 ns.

For the molecule `CC[n+]1c(C=C2C(=O)C(C=C3N(C)c4ccccc4C3(C)C)=C2[O-])sc2ccccc21`, the fluorescence lifetime reads like this: (in CO) 0.24 ns; (in ClC(Cl)Cl) 1.95 ns.

Take `COc1ccc2c(c1)c(=O)c1ccccc1n2CCCCCC(=O)O`: where the note is “in O”, the fluorescence lifetime came out at 17 ns.

As to `CCC1=C(C)C2=Cc3c(I)c(I)c(I)n3[B-](F)(F)[N+]2=C1C`, the fluorescence lifetime (in C1CCCCC1) is 0.358 ns; the fluorescence lifetime (in CC(C)=O) was found to be 0.198 ns; the fluorescence lifetime (in CCO) was found to be 0.244 ns; the fluorescence lifetime (in CCOC(C)=O) is 0.236 ns; the fluorescence lifetime (in CO) amounted to 0.22 ns; the fluorescence lifetime (in OCC(F)(F)F) worked out at 0.18 ns.

Turning to `CCN1C(=CC2=C([O-])C(=Cc3sc4ccccc4[n+]3CC)C2=O)Sc2ccccc21`, the fluorescence lifetime runs as follows: (in CO) 0.56 ns; (in ClC(Cl)Cl) 4.05 ns.

In turn, `F[B-]1(F)OC(c2cccc(Br)c2)=Cc2c3ccccc3c3ccccc3[n+]21` yielded a fluorescence lifetime (in ClC(Cl)Cl) of 0.315 ns.

With `CN(C)CCCN1c2ccccc2Sc2ccccc21`, the fluorescence lifetime worked out at 1.85 ns (in CC#N), 1.75 ns (in CO) and 2.04 ns (in O).

On to `COc1ccc2cc3c(C)cc(=O)oc3cc2c1`, for which the fluorescence lifetime is 0.35 ns (in CC#N); 4.2 ns (in CCO); 0.066 ns (in CCOC(C)=O); 6.7 ns (in CO); 0.57 ns (in ClC(Cl)Cl); 13 ns (in OCC(F)(F)F).

In turn, `FC(F)(F)c1cc2n(n1)[B-]1(c3ccccc3-c3ccccc31)[n+]1ccc3ccccc3c1-2` yielded a fluorescence lifetime (in C1CCCCC1) of 1.22 ns, a fluorescence lifetime (in Cc1ccccc1) of 1.22 ns and a fluorescence lifetime (in ClCCl) of 13.7 ns.

In turn, `COc1ccc2c3ccc(OC)cc3c3cc4c(C)cc(=O)oc4cc3c2c1` returned a fluorescence lifetime (in ClC(Cl)Cl) of 6.2 ns.

Take `CN(C)c1ccc(C#Cc2ccccc2)cc1`: the fluorescence lifetime (in C1CCCCC1) was 0.38 ns; the fluorescence lifetime (in C1CCOC1) turned out to be 0.589 ns; the fluorescence lifetime (in C1COCCO1) worked out at 0.71 ns; the fluorescence lifetime (in CC1CCCO1) is 0.414 ns; the fluorescence lifetime (in CC#N) was 1.25 ns; the fluorescence lifetime (in CC(C)=O) was 1.83 ns. In addition, the fluorescence lifetime (in CC(C)CC(C)(C)C) stood at 0.35 ns; the fluorescence lifetime (in CCCCCCCCCCCCCCCC) was found to be 0.43 ns; the fluorescence lifetime (in CCCCCCCCCCCCCCCCCl) was 0.66 ns; the fluorescence lifetime (in CCOC(C)=O) was found to be 1.16 ns; the fluorescence lifetime (in CCOCC) came to 0.411 ns; the fluorescence lifetime (in CN(C)C=O) stood at 1.24 ns. Besides, the fluorescence lifetime reads like this: (in CS(C)=O) 0.757 ns; (in Cc1ccccc1) 0.58 ns.

Consider `Cc1ccc(C2=Nc3cccc4[n+]3[B-](c3ccccc3)(N2)NC(c2ccc(C)cc2)=N4)cc1`, for which the fluorescence lifetime (in ClCCl) came to 2.6 ns.

Turning to `CCN1C(=O)C(C2C(=O)c3c4ccccc4cc4cc5ccccc5c2c34)C(=O)N(CC)C1=S` (stereo not drawn), the fluorescence lifetime was found to be 11.1 ns (in C1CCOC1), 13.1 ns (in CCCCCC), 12.4 ns (in Cc1ccccc1) and 10.5 ns (in ClCCl).

`CCCCn1c(-c2ccc(-c3nnc(-c4ccc(-c5nc6ccccc6n5CCCC)cc4)o3)cc2)nc2ccccc21` registered a fluorescence lifetime (in ClCCl) of 0.99 ns.

Molecule `CC(=O)c1ccc(-c2nc3ccc(N(C)C)c(Br)c3s2)cc1` showed a fluorescence lifetime (in C1CCCCC1) of 0.1 ns.

For the molecule `CSc1nc(-c2ccc(-n3c4ccccc4c4ccccc43)cc2)cc(-c2ccc(-n3c4ccccc4c4ccccc43)cc2)n1`, the fluorescence lifetime reads like this: (in C1CCOC1) 3.22 ns; (in CN(C)C=O) 7.39 ns; (in Cc1ccccc1) 1.45 ns; (in ClC(Cl)Cl) 3.24 ns.

As to `CC(C)[Si](C#Cc1ccc(C#C[Si](C(C)C)(C(C)C)C(C)C)c2nc3ccccc3nc12)(C(C)C)C(C)C`, the fluorescence lifetime (in ClCCl) worked out at 0.37 ns.

For the setting “in ClCCl”, `CC(C)(C)C#Cc1cc2c(C#CC(C)(C)C)c(C#CC(C)(C)C)c3cc(C#CC(C)(C)C)cc4c(C#CC(C)(C)C)c(C#CC(C)(C)C)c(c1)c2c34` yielded a fluorescence lifetime of 22.3 ns.

Where the note is “in ClC(Cl)Cl”, `COc1ccc(N(c2ccc(OC)cc2)c2ccc(-c3ccc(-c4ccc(-c5ccc(-c6ccc(N(c7ccc(OC)cc7)c7ccc(OC)cc7)cc6)s5)c5nsnc45)s3)cc2)cc1` showed a fluorescence lifetime of 4.9 ns.

Consider `CCCCCCCCCCCCN1C(=O)c2c(c3ccc4cc(-c5ccc(C)cc5)c(OC)cc4c3c3c2ccc2cc(-c4ccc(C)cc4)c(OC)cc23)C1=O`, for which the fluorescence lifetime (in ClCCl) came to 6.2 ns.

For the molecule `CCCCCCCCN1c2ccccc2Sc2cc(/C=C/c3ccc(N(c4ccc(/C=C/c5ccc6c(c5)Sc5ccccc5N6CCCCCCCC)cc4)c4ccc(/C=C/c5ccc(/C=C/c6ccc(N(c7ccc(/C=C/c8ccc(N(c9ccccc9)c9ccccc9)cc8)cc7)c7ccc(/C=C/c8ccc(N(c9ccccc9)c9ccccc9)cc8)cc7)cc6)c6nsnc56)cc4)cc3)ccc21`, the fluorescence lifetime is 1.76 ns (in C1CCOC1); 1.79 ns (in CCOC(C)=O); 3.49 ns (in Cc1ccccc1); 2.38 ns (in ClC(Cl)Cl); 1.75 ns (in ClCCl).

On to `CCCCn1c(-c2ccc(-c3nnc(-c4cccs4)o3)cc2)nc2c3ccccc3c3ccccc3c21`, for which the fluorescence lifetime (in ClCCl) turned out to be 1.76 ns.

On to `COc1ccc(-c2nc(C)cc(-c3ccc(-n4c5ccccc5c5ccccc54)cc3)n2)cc1`, for which the fluorescence lifetime is, setting by setting: (in C1CCOC1) 3.76 ns; (in CN(C)C=O) 6.51 ns; (in Cc1ccccc1) 1.87 ns; (in ClC(Cl)Cl) 3.91 ns.

In the case of `Cc1ccc(C2=C3C=CC(c4ccccc4)=[N+]3[B-](F)(F)n3c2ccc3-c2ccccc2)cc1`, the fluorescence lifetime by setting is: (in C1CCCCC1) 1.56 ns; (in C1CCOC1) 1.4 ns; (in C1COCCO1) 1.59 ns; (in CCOC(C)=O) 1.37 ns; (in CO) 1.22 ns; (in Cc1ccccc1) 2.17 ns. This molecule also registered a fluorescence lifetime (in ClC(Cl)Cl) of 1.97 ns.

As to `CCCCCCCCCCCCN1C(=O)c2c(c3ccc4cc(-c5ccc(-c6ccccc6)cc5)c(OC)cc4c3c3c2ccc2cc(-c4ccc(-c5ccccc5)cc4)c(OC)cc23)C1=O`, the fluorescence lifetime (in ClCCl) was determined as 6.19 ns.

In turn, `CCCCCCCCc1ccc(-c2ccc(/C=C(\C#N)c3ccc(-c4cccc5cccc(-c6ccc(/C(C#N)=C/c7ccc(-c8ccc(CCCCCCCC)cc8)cc7)cc6)c45)cc3)cc2)cc1` yielded a fluorescence lifetime (in Cc1ccccc1) of 4.9 ns.

In the case of `N#Cc1cc(N2c3ccccc3Sc3ccccc32)c(N2c3ccccc3Sc3ccccc32)cc1C#N`, the fluorescence lifetime (in c1ccc2c(c1)c1ccccc1n2-c1ccc(-c2ccc(-n3c4ccccc4c4ccccc43)cc2)cc1) was found to be 48.2 ns.

`C[n+]1c2c(c(-c3ccccc3)c3c1CCCC3)CCCC2`: the fluorescence lifetime (in CCO) is 5.39 ns.

`CCOC(=O)c1ccc2c(c1)n(C)c1c3ccc(C(=O)OCC)cc3n(C)c21` had a fluorescence lifetime (in CCCO) of 7.8 ns.

`C[N+]1=c2cc3c(cc2C(C)(C)CC1)=C(c1ccccc1C(=O)O)c1cc2c(cc1O3)Oc1cc3c(cc1=C2c1ccccc1C(=O)O)C(C)(C)CC[N+]=3C` came in with a fluorescence lifetime (in ClC(Cl)Cl) of 2.34 ns.

Where the note is “in CC#N”, `c1cc2c3c(cccc3c1)C(N1CCOCCOCCOCCOCC1)=N2` gave a fluorescence lifetime of 0.55 ns.
